Read-outs that look alike come from different tables or passages of the source.
Experiments:
[1] = test system: human T-cell lines, e.g., MT4 and H9, infected with HIV-1IIIB; test: Retroviral replication in infected human T-cell lines; type: cell-based; details: MT4 and H9 cells infected with HIV-1IIIB
Description: Several compounds of the present invention, such as N-[3-(1-[5,6-Dihydro-4-hydroxy-2-oxo-6-(2-phenethyl)-6-propyl-2H-pyran-3-yl]-2,2-dimethylpropyl)phenyl]-1-methyl-1H-imidazole-4-sulfonamide were tested in known human cell lines, such as human T-cell lines, e.g., MT4 and H9, which were infected with HIV-1IIIB, and certain of these compounds were further tested in peripheral blood mononuclear cells (PBMC), which were infected with HIV-1JRCSF (a clinical isolate).

HIV-1 protease [2] = target: T1, HIV-1 protease (Human immunodeficiency virus type 1 group M subtype B, UniProt P04585); test: biochemical
Outline: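 Biotinylated, FITC-labelled peptide substrate cleaved in 0.1 M sodium acetate pH 5.5, 1.0 M NaCl, 0.05% NP-40, room temperature. Filtered labelled product read by fluorescence; nonlinear least-squares fit.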

[3] = target: T2, single chain tethered (tandem) HIV protease (HIV-1 M:B_HXB2R, UniProt P04585); test: Tandem HIV protease assay; type: biochemical; details: read-out: FITC KI; Table II; enzyme HIV1TANDEM
T2 construct: purified enzyme, FITC/biotin substrate assay
Outline: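 Covalently tethered single-chain HIV protease dimer allows very low enzyme levels for Ki measurement. N-biotinylated, C-fluorescein-labelled peptide substrate incubated with enzyme and inhibitor at pH 5.5 in the dark for 96 h; streptavidin beads stop reaction, cleaved product filtered off and residual fluorescence fitted to obtain Ki.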

HIV-1 protease [4] = target: T1, HIV-1 protease; test: biochemical; details: Table II, enzyme HIV-1
Outline: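 Percent inhibition came from fluorescence of FITC-tagged cleavage product, separated by filtration from uncleaved substrate captured on streptavidin-coated beads. The enzyme (10 μl of 0.1 μM) and compound acted on a biotin/FITC dual-labelled peptide for one hour at room temperature in the dark. The reaction ran in 0.1 M sodium acetate, pH 5.5, with 1.0 M NaCl and 0.05% NP-40.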

HIV-2 = target: T3, HIV-2 (Human immunodeficiency virus type 2 subtype A, UniProt P04584); test: FITC Ki, enzyme HIV-2; type: biochemical; details: Table II
T3 construct: tested in the HIV protease screening assay and/or tandem HIV protease assay

[5] = Table II, enzyme HIV-1, read-out: FITC KI

T3 sequence (P04584 514-612 limits assumed): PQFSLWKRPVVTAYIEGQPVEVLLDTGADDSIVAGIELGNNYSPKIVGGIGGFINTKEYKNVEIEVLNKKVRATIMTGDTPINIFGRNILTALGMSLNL

SMILES | inhibition of retroviral replication [1] | Ki (HIV-1 protease [2]; Table I, read-out: HIV Protease FITC Assay Ki) | Ki [3] | PROTEASE % INHIB. (HIV-1 protease [4]; DOSE 0.123 (unit not given)) | PROTEASE % INHIB. (HIV-1 protease [4]; DOSE 0.370 (unit not given)) | PROTEASE % INHIB. (HIV-1 protease [4]; DOSE 1.100 (unit not given)) | PROTEASE % INHIB. (HIV-1 protease [4]; DOSE 3.300 (unit not given)) | PROTEASE % INHIB. (HIV-1 protease [4]; DOSE 10.000 (unit not given)) | PROTEASE % INHIB. (HIV-1 protease [4]; DOSE 30.000 (unit not given)) | Ki (HIV-1 protease [2]; [5]) | Ki (HIV-2)
CCCC1(CCc2ccccc2)CC(O)=C(C(c2cccc(NS(=O)(=O)c3cn(C)cn3)c2)C(C)(C)C)C(=O)O1 (centres unmarked) [Example 250, N-[3-(1-[5,6-Dihydro-4-hydroxy-2-oxo-6-(2-phenethyl)-6-propyl-2H-pyran-3-yl]-2,2-dimethylpropyl)phenyl]-1-methyl-1H-imidazole-4-sulfonamide] | inhibit retroviral replication | 1.2 nM |  |  |  |  |  |  |  |  | 
CCCC1(CCc2ccc(F)cc2)CC(O)=C(C(CC)c2cccc(NS(=O)(=O)c3ccc(C(N)=O)cn3)c2)C(=O)O1 (centres unmarked) [Example 332, N-[3-{1-(4-Hydroxy-5,6-dihydro-2-oxo-6-(2-(4-fluorophenyl)ethyl)-6-propyl-2H-pyran-3-yl)propyl}phenyl]-5-carbamoylpyridine-2-sulfonamide] |  |  | 0.4 nM | 81.87% | 85.65% | 86.23% | 93.28% | 91.68% | 95.08% | 1.6 nM | 
CCCC1(CCC)CC(O)=C(C(CC)c2cccc(NS(=O)(=O)c3ccc(C(N)=O)cn3)c2)C(=O)O1 (centres unmarked) [Example 334, N-[3-{1-(4-Hydroxy-5,6-dihydro-2-oxo-6,6-dipropyl-2H-pyran-3-yl)propyl}phenyl]-5-carbamoylpyridine-2-sulfonamide] |  |  | 0.45 nM | 93.49% | 90.25% | 94.57% | 102.47% | 97.61% | 96.3% |  | 
N#Cc1ccc(S(=O)(=O)Nc2cccc(CC3=C(O)CC(CCc4ccccc4)(CCc4ccccc4)OC3=O)c2)nc1 [Example 353, N-[3-{1-(4-Hydroxy-5,6-dihydro-2-oxo-6,6-bis(2-phenylethyl)-2H-pyran-3-yl)methyl}phenyl]-5-cyanopyridine-2-sulfonamide] |  |  | 5.3 nM | 51.83% | 68.49% | 70.71% | 63.96% | 51.8% | 43.93% | 10.4 nM | 
CCC(C1=C(O)C2CCCCC2OC1=O)c1cccc(NS(=O)(=O)c2ccc(C#N)cn2)c1 (centres unmarked) [Example 370] |  |  | 0.05 nM | 92.81% | 87.87% | 102.89% | 109.33% | 113.79% | 98.14% | 0.59 nM | 0.05 nM
CC(C)(C)C(C1=C(O)C2CCCCCCC2OC1=O)c1cccc(NS(=O)(=O)c2ccc(C#N)cn2)c1 (centres unmarked) [Example 373, 5-Cyano-N-[3-[2,2-dimethyl-1-(4a,5,6,7,8,9,10,10a-octahydro-4-hydroxy-2-oxo-2H-cycloocta[b]pyran-3-yl)propyl]phenyl]-2-pyridinesulfonamide] |  |  | 0.2 nM | 90.71% | 90.35% | 103.83% | 88.72% | 85.75% | 89.53% |  | 

Reference: patent US6169181A, “Compounds useful to treat retroviral infections” (Pharmacia & Upjohn Company, priority 1998, dated 2001)
